Source: US6153589A, “2,3-epoxy alcohols, acids and derivatives as anti retroviral chemotherapeutic agents” (The United States of America as represented by the …, priority 1992, dated 2000)
Read-outs that look alike come from different tables or passages of the source.

Legend:
HIV-2 protease = test: HIV protease cleavage of nonapeptide (HPLC); type: biochemical; conditions: 0.5 μl of 10 μg/μl inhibitor in DMSO per 10 μl reaction; pH 6.5, room temperature; pentapeptide product relative to DMSO control; sampled at ca. 16 and 40 hr (time not given)
Outline: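 Nonapeptide substrate Val-Ser-Gln-Asn-Tyr-Pro-Ile-Val-Gln-NH2 incubated with protease (ca. 100 ng) in 200 mM sodium phosphate, 1 M NaCl, 5% glycerol, 0.25% NP-40, pH 6.5, at room temperature with inhibitor added from a 10 μg/μl DMSO stock. Samples taken at ca. 16 and 40 h; RP-HPLC (206 nm) measured pentapeptide product relative to DMSO control.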

porcine Renin = target: T1, porcine Renin (Sus scrofa, UniProt A0A287APG1); test: Porcine Renin cleavage of porcine tetradecapeptide (HPLC); type: biochemical; conditions: 0.5 μl of 50 μg/μl inhibitor in DMSO in 50 μl; pH 6.00, room temperature, 70 min; relative to uninhibited control
T1 construct: purchased Sigma
From the text: Renin Activity: Porcine Renin Cleavage of Porcine Tetradecapeptide
Proteolytic enzymes are ubiquitous in many living systems. Renin is an asparxyl protease found in mammals which is responsible for the regulation of blood pressure. Structural and functional similarities between Renin and retroviral proteases have been previously noted (Pearl, L. H., Taylor, W. R., (1987) Nature, 329, 351-354). Consequently, successful therapeutic inhibition of retroviral proteases depends on the ability of the inhibitor to inhibit the retroviral enzyme while having a greatly diminished effect on normally occurring enzymes like Renin. The failure to inhibit the desired enzyme selectively may have an adverse effect on normal biochemical functions. The similarity of Renin to retroviral proteases and its viral normal bodily function makes it an attractive system in which to examine inhibitory selectivity.
Renin activity was determined by a method similar to that described above for the HIV protease. A solution containing 0.37 m unit (0.5 μl of stock solution containing 0.75 m unit/μl) of porcine Renin (Sigma) was added to 5 μg of porcine angiotensinogen in 50 μl of 0.1 M citrate-phosphate buffer (pH 6.00) containing 0.25% NP-40. A DMSO solution containing the inhibitor (0.5 μl of a 50 μg/μl solution) was added and the reaction was allowed to incubate at room temperature for 70 min. The entire mixture was analyzed by HPLC chromatographic analysis was perforemd on a 4.6×250 mm Lichrosorb RP-18 column eluting with a gradient of 0-50% acetonitrile in 0.02 M KH2 Po4 (pH 4.7) over 30 min monitoring absorbance at 206 nm. Appearance of both the tetrapeptide and the decapeptide products may be monitored under these conditions. Enzyme activity is expressed as the amount of tetrapeptide produced relative to an uninhibited control, and are summarized in Table 3 below.

HIV1 IIIb = test: microbe, parasite or virus in culture; type: cell-based; conditions: Human immunodeficiency virus 1, IIIB; for viability at 10 µg/mL: 10 ug/ml; for viability at 23 µg/mL: 23 ug/ml; for viability at 11.5 µg/mL: 11.5 ug/ml; for viability at 31.9 µg/mL: 31.9 ug/ml; for viability at 3.9 µg/mL: 3.9 ug/ml; for viability at 80.2 µg/mL: 80.2 ug/ml; for viability at 23.8 µg/mL: 23.8 ug/ml; for viability at 14 µg/mL: 14 ug/ml; for viability at 140 µg/mL: 140 ug/ml; for viability at 38 µg/mL: 38 ug/ml
Outline: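 Human host cells infected with HIV1 IIIb (virus-producing H9 cells or cell-free virus) and incubated seven days with compound. Viable cells measured by XTT formazan absorbance; response expressed as % of uninfected controls against virus kill %. Some cultures redosed after 3 days.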

[1] = H9, 168 h, read-out: Antiviral Effect (viable cells as % of uninfected controls), run 3, source C (virus producing H9 cells), virus kill 14.0%

T1 sequence (A0A287APG1 24-407): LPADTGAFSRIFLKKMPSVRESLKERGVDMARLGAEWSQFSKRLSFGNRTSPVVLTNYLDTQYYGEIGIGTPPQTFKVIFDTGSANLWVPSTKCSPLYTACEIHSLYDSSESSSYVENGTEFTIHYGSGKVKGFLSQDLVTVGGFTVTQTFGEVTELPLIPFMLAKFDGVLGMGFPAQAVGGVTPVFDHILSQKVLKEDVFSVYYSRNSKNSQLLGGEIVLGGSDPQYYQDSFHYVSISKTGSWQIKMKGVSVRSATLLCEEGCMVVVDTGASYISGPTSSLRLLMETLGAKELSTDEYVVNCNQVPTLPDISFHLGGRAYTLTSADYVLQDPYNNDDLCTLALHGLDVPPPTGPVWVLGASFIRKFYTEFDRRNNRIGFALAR

## CCCCCCCCC[C@H]1O[C@H]1CO [Example 11, (2S-cis)-3-Nonyloxirane Methanol]
HIV-2 protease
  Percent Control Cleavage of Nonapeptide HIV-1 Cleavage Site Fragment: 85%
Porcine Renin
  Percent control (tetrapeptide produced): 106%
HIV1 IIIb; 168 h, read-out: Antiviral Effect (viable cells as % of uninfected controls), run 8, source V (cell free virus), virus kill 25.0%
  viability at 10 µg/mL: 110%
HIV1 IIIb; 168 h, read-out: Antiviral Effect (viable cells as % of uninfected controls), run 9, source V (cell free virus), virus kill 23.0%
  viability at 23 µg/mL: 30%
HIV1 IIIb; 168 h, read-out: Antiviral Effect (viable cells as % of uninfected controls), run 10, source V (cell free virus), virus kill 49.0%
  viability at 11.5 µg/mL: 68.5%
HIV1 IIIb; 168 h, read-out: Antiviral Effect (viable cells as % of uninfected controls), run 11, source V (cell free virus), virus kill 53.0%
  viability at 31.9 µg/mL: 65.1%
HIV1 IIIb; 168 h, read-out: Antiviral Effect (viable cells as % of uninfected controls), run 12, source V (cell free virus), virus kill 30.0%
  viability at 11.5 µg/mL: 80.4%
HIV1 IIIb; 168 h, read-out: Antiviral Effect (viable cells as % of uninfected controls), run 13, source V (cell free virus), virus kill 22.0%
  viability at 31.9 µg/mL: 82.6%
HIV1 IIIb; 168 h, read-out: Antiviral Effect (viable cells as % of uninfected controls), run 14, source V (cell free virus), virus kill 20.0%
  viability at 3.9 µg/mL: 21.5%
HIV1 IIIb; 168 h, read-out: Antiviral Effect (viable cells as % of uninfected controls), run 15*, source V (cell free virus), virus kill 25.0%, culture redosed with compound after 3 days
  viability at 3.9 µg/mL: 32.4%
HIV1 IIIb; H9, 168 h, read-out: Antiviral Effect (viable cells as % of uninfected controls), run 1, source C (virus producing H9 cells), virus kill 6.0%
  viability at 10 µg/mL: 60.2%
HIV1 IIIb; H9, 168 h, read-out: Antiviral Effect (viable cells as % of uninfected controls), run 2, 1 ug/ml, source C (virus producing H9 cells), virus kill 25.0%
  viability at 1 µg/mL: 37.5%
HIV1 IIIb; [1]
  viability at 23 µg/mL: 19.9%
HIV1 IIIb; H9, 168 h, read-out: Antiviral Effect (viable cells as % of uninfected controls), run 4, source C (virus producing H9 cells), virus kill 12.5%
  viability at 11.5 µg/mL: 18.1%
HIV1 IIIb; H9, 168 h, read-out: Antiviral Effect (viable cells as % of uninfected controls), run 5, source C (virus producing H9 cells), virus kill 13.0%
  viability at 31.9 µg/mL: 23.9%
HIV1 IIIb; H9, 168 h, read-out: Antiviral Effect (viable cells as % of uninfected controls), run 6, source C (virus producing H9 cells), virus kill 9.0%
  viability at 11.5 µg/mL: 12.3%
HIV1 IIIb; H9, 168 h, read-out: Antiviral Effect (viable cells as % of uninfected controls), run 7, source C (virus producing H9 cells), virus kill 11.0%
  viability at 31.9 µg/mL: 13%

## CCCCCCC[C@H]1O[C@H]1CO [Example 15, (2S-cis)-3-Heptyloxirane Methanol]
HIV-2 protease
  Percent Control Cleavage of Nonapeptide HIV-1 Cleavage Site Fragment: 59%
Porcine Renin
  Percent control (tetrapeptide produced): 86%
HIV1 IIIb; 168 h, read-out: Antiviral Effect (viable cells as % of uninfected controls), run 3, 92 ug/ml, source V (cell free virus), virus kill 35.0%
  viability at 92 µg/mL: 60.8%
HIV1 IIIb; 168 h, read-out: Antiviral Effect (viable cells as % of uninfected controls), run 4, source V (cell free virus), virus kill 57.0%
  viability at 10 µg/mL: 78.2%
HIV1 IIIb; 168 h, read-out: Antiviral Effect (viable cells as % of uninfected controls), run 5, source V (cell free virus), virus kill 26.0%
  viability at 10 µg/mL: 58.6%
HIV1 IIIb; 168 h, read-out: Antiviral Effect (viable cells as % of uninfected controls), run 6*, 21.6 ug/ml, source V (cell free virus), virus kill 31.0%, culture redosed with compound after 3 days
  viability at 21.6 µg/mL: 32%
HIV1 IIIb; H9, 168 h, read-out: Antiviral Effect (viable cells as % of uninfected controls), run 1, 46 ug/ml, source C (virus producing H9 cells), virus kill 15.0%
  viability at 46 µg/mL: 58.3%
HIV1 IIIb; H9, 168 h, read-out: Antiviral Effect (viable cells as % of uninfected controls), run 2, 4.6 ug/ml, source C (virus producing H9 cells), virus kill 13.0%
  viability at 4.6 µg/mL: 11.8%

## CCCCCCC[C@@H]1O[C@@H]1CO [Example 16, (2R-cis)-3-Heptyloxirane Methanol]
HIV-2 protease
  Percent Control Cleavage of Nonapeptide HIV-1 Cleavage Site Fragment: 42%
Porcine Renin
  Percent control (tetrapeptide produced): 96%
HIV1 IIIb; 168 h, read-out: Antiviral Effect (viable cells as % of uninfected controls), run 4, 160 ug/ml, source V (cell free virus), virus kill 40.0%
  viability at 160 µg/mL: 62.6%
HIV1 IIIb; 168 h, read-out: Antiviral Effect (viable cells as % of uninfected controls), run 5, source V (cell free virus), virus kill 60.0%
  viability at 80.2 µg/mL: 97.3%
HIV1 IIIb; 168 h, read-out: Antiviral Effect (viable cells as % of uninfected controls), run 6, source V (cell free virus), virus kill 30.0%
  viability at 80.2 µg/mL: 88.6%
HIV1 IIIb; 168 h, read-out: Antiviral Effect (viable cells as % of uninfected controls), run 7, source V (cell free virus), virus kill 22.0%
  viability at 23.8 µg/mL: 35.9%
HIV1 IIIb; 168 h, read-out: Antiviral Effect (viable cells as % of uninfected controls), run 8*, source V (cell free virus), virus kill 28.0%, culture redosed with compound after 3 days
  viability at 23.8 µg/mL: 39.7%
HIV1 IIIb; H9, 168 h, read-out: Antiviral Effect (viable cells as % of uninfected controls), run 1, 10.6 ug/ml, source C (virus producing H9 cells), virus kill 14.0%
  viability at 10.6 µg/mL: 27.3%
HIV1 IIIb; H9, 168 h, read-out: Antiviral Effect (viable cells as % of uninfected controls), run 2, source C (virus producing H9 cells), virus kill 15.0%
  viability at 80.2 µg/mL: 69.6%
HIV1 IIIb; H9, 168 h, read-out: Antiviral Effect (viable cells as % of uninfected controls), run 3, source C (virus producing H9 cells), virus kill 15.0%
  viability at 80.2 µg/mL: 84.5%

## CCCCCCCCC[C@H]1O[C@H]1C(N)=O [Example 23, (2R-cis)-3-Nonyloxiranecarboxy Amide]
HIV-2 protease
  Percent Control Cleavage of Nonapeptide HIV-1 Cleavage Site Fragment: 102%
Porcine Renin
  Percent control (tetrapeptide produced): 88%
HIV1 IIIb; 168 h, read-out: Antiviral Effect (viable cells as % of uninfected controls), run 7, 2.8 ug/ml, source V (cell free virus), virus kill 19.0%
  viability at 2.8 µg/mL: 108%
HIV1 IIIb; 168 h, read-out: Antiviral Effect (viable cells as % of uninfected controls), run 8, 7.6 ug/ml, source V (cell free virus), virus kill 30.0%
  viability at 7.6 µg/mL: 40.2%
HIV1 IIIb; 168 h, read-out: Antiviral Effect (viable cells as % of uninfected controls), run 9, 3.8 ug/ml, source V (cell free virus), virus kill 52.0%
  viability at 3.8 µg/mL: 60.1%
HIV1 IIIb; 168 h, read-out: Antiviral Effect (viable cells as % of uninfected controls), run 10, source V (cell free virus), virus kill 52.0%
  viability at 14 µg/mL: 60.1%
HIV1 IIIb; 168 h, read-out: Antiviral Effect (viable cells as % of uninfected controls), run 11, 380 ug/ml, source V (cell free virus), virus kill 20.0%
  viability at 380 µg/mL: 24%
HIV1 IIIb; 168 h, read-out: Antiviral Effect (viable cells as % of uninfected controls), run 12, source V (cell free virus), virus kill 20.0%
  viability at 140 µg/mL: 31%
HIV1 IIIb; 168 h, read-out: Antiviral Effect (viable cells as % of uninfected controls), run 13*, 27 ug/ml, source V (cell free virus), virus kill 22.0%, culture redosed with compound after 3 days
  viability at 27 µg/mL: 79.6%
HIV1 IIIb; H9, 168 h, read-out: Antiviral Effect (viable cells as % of uninfected controls), run 1, 28 ug/ml, source C (virus producing H9 cells), virus kill 6.0%
  viability at 28 µg/mL: 75.6%
HIV1 IIIb; H9, 168 h, read-out: Antiviral Effect (viable cells as % of uninfected controls), run 2, 76 ug/ml, source C (virus producing H9 cells), virus kill 17.0%
  viability at 76 µg/mL: 28.5%
HIV1 IIIb; [1]
  viability at 38 µg/mL: 35.1%
HIV1 IIIb; H9, 168 h, read-out: Antiviral Effect (viable cells as % of uninfected controls), run 4, source C (virus producing H9 cells), virus kill 14.0%
  viability at 140 µg/mL: 25.1%
HIV1 IIIb; H9, 168 h, read-out: Antiviral Effect (viable cells as % of uninfected controls), run 5, source C (virus producing H9 cells), virus kill 17.0%
  viability at 38 µg/mL: 17%
HIV1 IIIb; H9, 168 h, read-out: Antiviral Effect (viable cells as % of uninfected controls), run 6, source C (virus producing H9 cells), virus kill 17.0%
  viability at 14 µg/mL: 16%
